Reference: US20250288619A1, “PHARMACEUTICAL COMPOSITION, MEGASPHAERA, AND USE THEREOF” (MOON (GUANGZHOU) BIOTECH CO., LTD., priority 2022, published 2025)

Experiments:
[1] = system: strain MNH27256; assay: Antibiotic sensitivity test by disk diffusion method, strain MNH27256; assay type: cell-based, Megasphaera sp.
Protocol: (§1) Antibiotic sensitivity tests of the strains MNH05026, MNH22004, and MNH27256: Antibiotic sensitivity tests were carried out on the strain MNH05026 by a disk diffusion method.

[2] = system: strain MNH22004; assay: Antibiotic sensitivity test by disk diffusion method, strain MNH22004; assay type: cell-based, Megasphaera sp.
Protocol: as §1

[3] = system: strain MNH05026; assay: Antibiotic sensitivity test by disk diffusion method, strain MNH05026; assay type: cell-based, Megasphaera sp.
Protocol: as §1

[4] = system: ectopic syngeneic liver cancer model; assay: Therapeutic effect of MNH05026 in combination with Lenvatinib on liver cancer; assay type: in vivo, mouse; conditions: male BALB/c mice
Text: 104 male BALB/c mice were purchased, and inoculated with tumor cells after the quarantine was completed, to establish an ectopic syngeneic liver cancer model. The day of tumor cell inoculation was D1. […] Mice with abnormal tumor growth were discarded and the remaining mice were randomized into 10 groups according to the tumor volume on that day, with 7 mice per group. […] Group A was the Negative Control group, Group B was the positive control Lenvatinib group, Group J was the Lenvatinib+MNH05026 combination group, and Groups C-I received other test articles in combination with Lenvatinib. On the day of grouping, interventions were carried out according to the grouping. During the experiment, animal characteristics, tumor changes, tumor sizes, and mouse weights were monitored regularly. At the experimental endpoint, body weight changes, tumor volume changes, response rates, and tumor growth inhibition rates were analyzed.
Statistical analysis was performed using Two-Way ANOVA with Dunnett's multiple comparisons at the experimental endpoint. Significance of difference vs. the Control group: not significant (ns), p value≥0.05; *, p value<0.05; **, p value<0.01; ***, p value<0.001; ****, p value<0.0001.
FIGS. 17B and 17C present the mouse tumor volume data as mean±standard deviation (mm3). Statistical analysis was performed using Two-Way ANOVA with Dunnett's multiple comparisons at the experimental endpoint. Significance of difference vs. the Control group: not significant (ns), p value≥0.05; *, p value<0.05; **, p value<0.01; ***, p value<0.001; ****, p value<0.0001.

| Compound | Diameter of inhibition zone by MNH27256 [1] | Sensitivity or resistance of strain MNH27256 to the antibiotic [1] | Diameter of inhibition zone by MNH22004 [2] | Sensitivity or resistance of strain MNH22004 to the antibiotic [2] | Diameter of inhibition zone by MNH05026 [3] | Sensitivity or resistance of strain MNH05026 to the antibiotic [3] | Body weight during the experiment [4] | Response rate [4] | Tumor volume at the experimental endpoint vs Control group [4] |
| --- | --- | --- | --- | --- | --- | --- | --- | --- | --- |
| CC1(C)S[C@@H]2[C@H](NC(=O)[C@H](N)c3ccccc3)C(=O)N2[C@H]1C(=O)O [Ampicillin] | 0 mm | resistant | 0 mm | resistant | 19.91 mm | sensitive | – | – | – |
| CO/N=C(\C(=O)N[C@@H]1C(=O)N2C(C(=O)O)=C(CSc3nc(=O)c(=O)[nH]n3C)CS[C@H]12)c1csc(N)n1 [Ceftriaxone] | 0 mm | resistant | 12.78 mm | sensitive | 29.42 mm | sensitive | – | – | – |
| O=C(N[C@H](CO)[C@H](O)c1ccc([N+](=O)[O-])cc1)C(Cl)Cl [Chloramphenicol] | 34.45 mm | sensitive | 33.29 mm | sensitive | 37.02 mm | sensitive | – | – | – |
| O=C(O)c1cn(C2CC2)c2cc(N3CCNCC3)c(F)cc2c1=O [Ciprofloxacin] | 34.69 mm | sensitive | 35.42 mm | sensitive | 37.66 mm | sensitive | – | – | – |
| CC[C@H]1OC(=O)[C@H](C)[C@@H](O[C@H]2C[C@@](C)(OC)[C@@H](O)[C@H](C)O2)[C@H](C)[C@@H](O[C@@H]2O[C@H](C)C[C@H](N(C)C)[C@H]2O)[C@](C)(O)C[C@@H](C)C(=O)[C@H](C)[C@@H](O)[C@]1(C)O [Erythromycin] | 9.0 mm | sensitive | 21.03 mm | sensitive | 15.65 mm | sensitive | – | – | – |
| COc1cc2nccc(Oc3ccc(NC(=O)NC4CC4)c(Cl)c3)c2cc1C(N)=O [Lenvatinib] | – | – | – | – | – | – | increased steadily | 85.71% | significant decrease |
| CCC[C@@H]1C[C@@H](C(=O)N[C@@H]([C@H]2O[C@H](SC)[C@H](O)[C@@H](O)[C@H]2O)[C@@H](C)O)N(C)C1 [Lincomycin] | 8.81 mm | sensitive | 11.34 mm | sensitive | 38.99 mm | sensitive | – | – | – |
| CN(C)[C@@H]1C(O)=C(C(N)=O)C(=O)[C@@]2(O)C(O)=C3C(=O)c4c(O)cccc4[C@@](C)(O)[C@H]3C[C@@H]12 [Tetracycline] | 17.75 mm | – | 10.48 mm | – | 21.44 mm | – | – | – | – |
| Gentamicin | 9.37 mm | sensitive | 9.00 mm | sensitive | 13.97 mm | sensitive | – | – | – |
| Penicillin | 0 mm | resistant | 0 mm | resistant | 29.75 mm | sensitive | – | – | – |
| Trimethoprim-sulfamethoxazole | 12.75 mm | sensitive | 17.08 mm | sensitive | 10.65 mm | sensitive | – | – | – |
